Source: publication PMC8704606, “The Artemiside-Artemisox-Artemisone-M1 Tetrad: Efficacies against Blood Stage P. falciparum Parasites, DMPK Properties, and the Case for Artemiside” (Pharmaceutics, 2021)
Read-outs that look alike come from different tables or passages of the source.

Columns and labels:
[1] = tested on: Chinese hamster ovary (CHO) cells; set-up: method as in PMID 29866868, PMID 31998692; details: other cell lines including CHO cells; read-out: EC50 cytotoxicity; cited from earlier work
[2] = tested on: CQ-sensitive P. berghei N strain; details: cited from earlier work
Toxoplasma gondii (Tg) [3] = tested on: Toxoplasma gondii (Tg); set-up: method as in PMID 19635951; details: read-out: EC50 against Tg in vitro; cited from earlier work
Toxoplasma gondii (Tg) [4] = tested on: Toxoplasma gondii (Tg); set-up: method as in PMID 19635951; details: IFN-γ−/− female mice, 10 mg/kg/d for 8 days after cessation of sulfadiazine; cited from earlier work
[5] = tested on: early-stage (EG) Pf NF54 gametocytes; set-up: method as in PMID 29866868; details: early-stage gametocytes >95% stages II-III; 48 h incubation; ± SEM; cited from earlier work
[6] = Pharmacokinetics and metabolism after iv and po administration; type: in vivo
Method: The plasma concentration-time profiles of the parent compounds and metabolites after administration iv and po to male C57/BL6 mice are presented in Figure 2, Figure 3 and Figure 4. Artemiside was quantifiable up to 24 h in all mice dosed iv and up to 7 h po (lower limit of quantitation LLOQ = 1.6 ng/mL or 0.004 μM) (Figure 2). […] For both artemiside and artemisox, the metabolite artemisone was quantifiable up to 3 h in both the po and iv groups (Figure 2 and Figure 3). Thereby it is confirmed that artemiside is rapidly converted via artemisox into artemisone. Artemisone itself was quantifiable up to three hours post dose (Figure 4). The mean circulating concentrations for the compounds and their metabolites are presented in Table S3a–f in the Supplementary Material 1. The metabolite M1 was also detected upon administration of artemiside, artemisox, and artemisone, but it was not quantified here; chromatograms indicating the presence of M1 are illustrated in Figure S3a–c in the Supplementary Material 1. In addition, the plasma concentration-time curves for artemiside and its metabolites artemisone and M1 following iv and po dosing in the same murine model are presented and discussed in detail elsewhere (cf. Figure 4 in reference).
All work was conducted with prior approval of the animal ethics committee of the University of Cape Town in accordance with the South African National Standards for the Care and Use of Animals for Scientific Purposes and guidelines from the South African Department of Health. The requirements and methods for the pharmacokinetics in vivo involving po and iv drug administration, sample extraction, analyses of samples by LC-MS/MS, and data analyses are described elsewhere. For the animal experiments and formulations, the compounds were dissolved in a 10:60:30 mixture of N,N-dimethylacetamide-polypropylene glycol-polyethylene glycol for intravenous dosing (iv) at 5 mg/kg. For the oral dose (po), compounds were individually dosed as a suspension in 0.5% (w/v) hydroxypropylmethylcellulose in water with 0.2% Tween80 at 50 mg/kg to male C57/BL6 mice (n = 3 for each group). For PK sampling, blood samples were collected at predetermined times (0.08, 0.25, 0.5, 1, 3, 5, 7, and 24 h) for both po and iv dosing via tail bleeding into heparinized tubes, centrifuged, and the plasma samples were stored at −80 °C until extraction. For preparation of samples, the frozen plasma samples were thawed and 15 μL was extracted by liquid–liquid extraction using a universal buffer (pH8) containing 10 ng/mL of the internal standard and ethyl acetate, and the extract was vortexed and centrifuged. Calibration standards and quality controls were extracted following the same procedure. Supernatants were dried down, reconstituted, and injected onto the column for LC-MS/MS analysis using an AB SCIEX 5500 QTRAP instrument coupled to an Agilent 1260 HPLC detection system as previously described.

C[C@H]1[C@H](N2CCS(=O)(=O)CC2)O[C@@H]2O[C@@]3(C)CC[C@H]4[C@H](C)CC[C@@H]1[C@@]24OO3 [Artemisone 7, Artemisone]
EC50 [1]: > 241000 nM
P. berghei ED90 po ([2]; Peters four-day test, mice, oral daily day 0-3, ref S4 (24)): 3.1 mg/kg
P. berghei ED90 sc ([2]; Peters four-day test, mice, subcutaneous daily day 0-3, ref S4 (24)): 1.5 mg/kg
P. berghei artesunate index po (ED90 artesunate/ED90 compound) ([2]; ref S4): 2.3
P. berghei artesunate index sc (ED90 artesunate/ED90 compound) ([2]; ref S4): 3.2
EC50 (Toxoplasma gondii (Tg) [3]): 120 nM
mice with prolonged survival, reactivation stage (Toxoplasma gondii (Tg) [4]): 60%
IC50 [5]: 1.94 ± 0.11 nM
Mean iv circulating concentration ([6]; 5 h after iv 5 mg/kg artemisone 7): blq
Mean iv circulating concentration ([6]; 5 h after iv 5 mg/kg artemisox 6): blq
Mean po circulating concentration ([6]; 5 h after po 50 mg/kg artemiside 5): blq
Mean po circulating concentration ([6]; 5 h after po 50 mg/kg artemisone 7): blq
Mean iv circulating concentration ([6]; 7 h after iv 5 mg/kg artemiside 5): blq
Mean iv circulating concentration ([6]; 7 h after iv 5 mg/kg artemisone 7): blq
Mean iv circulating concentration ([6]; 7 h after iv 5 mg/kg artemisox 6): blq
Mean po circulating concentration ([6]; 7 h after po 50 mg/kg artemiside 5): blq
Mean po circulating concentration ([6]; 7 h after po 50 mg/kg artemisone 7): blq
Mean po circulating concentration ([6]; 7 h after po 50 mg/kg artemisox 6): blq
Mean iv circulating concentration ([6]; 24 h after iv 5 mg/kg artemiside 5): blq
Mean iv circulating concentration ([6]; 24 h after iv 5 mg/kg artemisone 7): blq
Mean iv circulating concentration ([6]; 24 h after iv 5 mg/kg artemisox 6): blq
Mean po circulating concentration ([6]; 24 h after po 50 mg/kg artemiside 5): blq
Mean po circulating concentration ([6]; 24 h after po 50 mg/kg artemisone 7): blq
Mean po circulating concentration ([6]; 24 h after po 50 mg/kg artemisox 6): blq
quantifiable up to, post dose ([6]; artemisone itself dosed, iv 5 mg/kg and po 50 mg/kg (Figure 4)): up to three
t½ ([6]; iv 5 mg/kg, parent drug, mean ± SD, 5 mg/kg): 23.4 ± 4.8 min
concentration at 0.08 h ([6]; male, C57/BL6, mouse, plasma, iv, 5 mg/kg, 0.08 h after iv 5 mg/kg artemiside 5, read-out: Mean iv circulating concentration): 117 nM
concentration at 0.08 h ([6]; male, C57/BL6, mouse, plasma, iv, 5 mg/kg, 0.08 h after iv 5 mg/kg artemisone 7, read-out: Mean iv circulating concentration): 3860 nM
concentration at 0.08 h ([6]; male, C57/BL6, mouse, plasma, iv, 5 mg/kg, 0.08 h after iv 5 mg/kg artemisox 6, read-out: Mean iv circulating concentration): 1110 nM
concentration at 0.25 h ([6]; male, C57/BL6, mouse, plasma, iv, 5 mg/kg, 0.25 h after iv 5 mg/kg artemiside 5, read-out: Mean iv circulating concentration): 247 nM
concentration at 0.25 h ([6]; male, C57/BL6, mouse, plasma, iv, 5 mg/kg, 0.25 h after iv 5 mg/kg artemisone 7, read-out: Mean iv circulating concentration): 2510 nM
concentration at 0.25 h ([6]; male, C57/BL6, mouse, plasma, iv, 5 mg/kg, 0.25 h after iv 5 mg/kg artemisox 6, read-out: Mean iv circulating concentration): 1400 nM
concentration at 0.5 h ([6]; male, C57/BL6, mouse, plasma, iv, 5 mg/kg, 0.5 h after iv 5 mg/kg artemiside 5, read-out: Mean iv circulating concentration): 270 nM
concentration at 0.5 h ([6]; male, C57/BL6, mouse, plasma, iv, 5 mg/kg, 0.5 h after iv 5 mg/kg artemisone 7, read-out: Mean iv circulating concentration): 1720 nM
concentration at 0.5 h ([6]; male, C57/BL6, mouse, plasma, iv, 5 mg/kg, 0.5 h after iv 5 mg/kg artemisox 6, read-out: Mean iv circulating concentration): 1250 nM
concentration at 1 h ([6]; male, C57/BL6, mouse, plasma, iv, 5 mg/kg, 1 h after iv 5 mg/kg artemiside 5, read-out: Mean iv circulating concentration): 160 nM
concentration at 1 h ([6]; male, C57/BL6, mouse, plasma, iv, 5 mg/kg, 1 h after iv 5 mg/kg artemisone 7, read-out: Mean iv circulating concentration): 831 nM
concentration at 1 h ([6]; male, C57/BL6, mouse, plasma, iv, 5 mg/kg, 1 h after iv 5 mg/kg artemisox 6, read-out: Mean iv circulating concentration): 659 nM
concentration at 3 h ([6]; male, C57/BL6, mouse, plasma, iv, 5 mg/kg, 3 h after iv 5 mg/kg artemiside 5, read-out: Mean iv circulating concentration): 12 nM
